Among the test systems are MCF7; A549; MDA-MB-231; SNB-75; ACHN; KM12; HCT-15; 786-0; SK-MEL-28; M14; UO-31; NCI/ADR-RES; IGROV-1; OVCAR-3; DU-145; Malme-3M; RPMI-8226; CCRF-CEM; HL-60.
Assay in all cases: NCI tumour cell line growth inhibition, 48 h

The structures appear in SMILES notation.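 48-hour exposure; five concentrations; linearly interpolated endpoints. GI50 = concentration required for 50% inhibition of growth.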 Calls of active or inactive are those of the source. No stated cut-off is given here; in the data, active = GI50 up to about 1.1 µM and inactive = higher.

In the case of `O=C1/C(=C/c2cccc([N+](=O)[O-])c2)Sc2scc(-c3ccc([N+](=O)[O-])cc3)[n+]21`, the GI50 was 24.7 µM (inactive) in the test on MCF7; 29.6 µM (inactive) with A549; 21.9 µM (inactive) in the test on MDA-MB-231; 11 µM (inactive) with SNB-75; 19.8 µM (inactive) in the test on ACHN; 15.2 µM (inactive) with KM12. Besides, the GI50 in the test with HCT-15 was 14.5 µM; in the test with 786-0, 16.4 µM (inactive); in the test with SK-MEL-28 it was 25.5 µM (inactive); with M14 it was 60.8 µM (inactive); with UO-31, 11.3 µM (inactive); in the test on NCI/ADR-RES it was 19 µM (inactive). Besides, the GI50 with IGROV-1 is 18.6 µM (inactive); in the test on OVCAR-3, 31.6 µM (inactive); in the test on DU-145, 35.2 µM (inactive).
Consider `O=c1[nH]c2ccc(C(F)(F)F)cc2nc1C(F)(F)F`, for which the GI50 was 23 µM (inactive) in the test on MCF7; 27.9 µM (inactive) in the test on A549; 28.3 µM (inactive) with MDA-MB-231; 21.2 µM (inactive) in the test with Malme-3M; 12.1 µM (inactive) in the test on SNB-75; 30.6 µM (inactive) with RPMI-8226. Moreover, the GI50 in the test on ACHN was 30.9 µM (inactive); in the test with KM12, 22.8 µM (inactive); with HCT-15 it was 27.9 µM; in the test on 786-0 it was 35.2 µM (inactive); in the test on SK-MEL-28, 28.8 µM (inactive); with M14 it was 31.9 µM (inactive). The GI50 in the test with UO-31 was 20.7 µM (inactive); in the test on NCI/ADR-RES, 28.1 µM (inactive); in the test with CCRF-CEM, 11.1 µM (inactive); with IGROV-1, 22.8 µM (inactive); in the test with OVCAR-3 it was 14.9 µM (inactive); in the test on DU-145 it was 23.2 µM (inactive).
With `CCSc1nc(-c2cccs2)nc2ccc(I)cc12`, the GI50 in the test on MCF7 was 13.1 µM (inactive); with A549, > 100 µM (inactive); in the test on HL-60 it was > 100 µM (inactive); in the test with SNB-75, > 100 µM (inactive); in the test with RPMI-8226, > 100 µM (inactive); with ACHN, > 100 µM (inactive). Moreover, the GI50 in the test on KM12 was 72.8 µM (inactive); in the test with HCT-15 it was 89.9 µM; in the test on 786-0 it was > 100 µM (inactive); in the test on SK-MEL-28 it was > 100 µM (inactive); in the test with M14, > 100 µM (inactive); in the test on UO-31 it was > 100 µM (inactive). In addition, the GI50 is > 100 µM (inactive) in the test on NCI/ADR-RES; > 100 µM (inactive) with CCRF-CEM; > 100 µM (inactive) in the test on IGROV-1; 11.2 µM (inactive) in the test with OVCAR-3; > 100 µM (inactive) in the test with DU-145.
As for `COC(=O)CCC(NC(=S)N/N=C(\C)c1ccccn1)C(=O)OC` (stereo not given), the GI50 with A549 is 66.8 µM (inactive); in the test on Malme-3M, 45.4 µM (inactive); with HL-60, 18.5 µM (inactive); in the test on SNB-75, > 100 µM (inactive); in the test on RPMI-8226, 44.4 µM (inactive); in the test with ACHN, 28.5 µM (inactive). The GI50 is 91.6 µM (inactive) in the test with KM12; 40.9 µM in the test with HCT-15; 65.8 µM (inactive) in the test with 786-0; 66.7 µM (inactive) in the test with SK-MEL-28; 31.6 µM (inactive) with M14; 38.1 µM (inactive) in the test with UO-31. Besides, the values for the GI50 in the test on CCRF-CEM, in the test with IGROV-1 and in the test with OVCAR-3 were 29.6 µM (inactive), 82.8 µM (inactive) and 38.8 µM (inactive), respectively.
For `CC1CN(c2ccc(Cl)cc2)CC(C)OC(=O)O1` (stereo not given), the GI50 in the test with A549, in the test on Malme-3M, in the test with HL-60, in the test with SNB-75, in the test on RPMI-8226 and in the test on ACHN was > 100 µM (inactive) in each case. Also, the GI50 in the test on KM12 is > 100 µM (inactive); in the test on HCT-15, over 100 µM; with 786-0, > 100 µM (inactive); with SK-MEL-28, > 100 µM (inactive); with M14, > 100 µM (inactive); with UO-31, > 100 µM (inactive). Also, the GI50 in the test with CCRF-CEM, in the test on IGROV-1 and in the test with OVCAR-3 was > 100 µM (inactive) in each case.

(Values after ChEMBL document CHEMBL1201862, “PubChem BioAssay data set” (2004).)
